Source: patent publication US6479487B1, “6, 9-disubstituted 2-[trans-(4-aminocyclohexyl)amino] purines” (Aventis Pharmaceuticals Inc., priority 1998, dated 2002)
Values joined by “and” are separate entries in the source; they are usually repeats but may differ in a detail not shown here. Equal entries are not always repeated. Structures can show the parent of a compound that is named as a salt. Where two headings read alike, the source gives them in different places.

Columns and labels:
[1] = target: T1, cdk2/cyclin E (Homo sapiens, UniProt P24941); assay: Cyclin-Dependent Kinase 2 Assay (cdk2/cyclin E, GST-Rb substrate); assay type: biochemical; details: recombinant cdk2/cyclin E, 10 μM ATP, 30 min at 30° C., several values in a cell = separate determinations, read-out: CDK-2 Inhibition IC50
T1 construct: made in house; host or cells: insect cells (baculovirus co-infection)
Procedure: Substrate: GST-Rb as described above for cdk4/cyclin D1
Assay conditions for cdk2/cyclin E were identical to those for cdk4/cyclin D1 including the substrate. The concentration of recombinant cdk2/cyclin E in the assay was 0.1 μg per 100 μl assay. Incubation was for 30 min at 30° C.

[2] = target: T2, cdk4/cyclin D1 (Homo sapiens, UniProt P11802); assay: Cyclin-dependent Kinase 4 Assay (cdk4/cyclin D1, GST-Rb substrate); assay type: biochemical; details: cdk4/cyclin D1 insect cell lysate, 10 μM ATP, 30 min at 37° C., several values = separate determinations, read-out: CDK4 Inhibition IC50
T2 construct: made in house; host or cells: Sf9 insect cells (Bac-to-Bac baculovirus, pFastBac)
T2 sequence (P11802 whole entry): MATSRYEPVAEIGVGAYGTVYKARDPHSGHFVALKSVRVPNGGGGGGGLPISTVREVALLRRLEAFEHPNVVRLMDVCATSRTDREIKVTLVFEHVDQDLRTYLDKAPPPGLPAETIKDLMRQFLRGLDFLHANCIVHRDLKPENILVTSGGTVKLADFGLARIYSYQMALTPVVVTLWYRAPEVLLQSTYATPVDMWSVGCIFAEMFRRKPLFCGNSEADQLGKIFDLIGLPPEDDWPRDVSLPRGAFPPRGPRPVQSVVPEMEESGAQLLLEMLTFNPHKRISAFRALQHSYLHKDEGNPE
T2 sequence (P24385 whole entry partner): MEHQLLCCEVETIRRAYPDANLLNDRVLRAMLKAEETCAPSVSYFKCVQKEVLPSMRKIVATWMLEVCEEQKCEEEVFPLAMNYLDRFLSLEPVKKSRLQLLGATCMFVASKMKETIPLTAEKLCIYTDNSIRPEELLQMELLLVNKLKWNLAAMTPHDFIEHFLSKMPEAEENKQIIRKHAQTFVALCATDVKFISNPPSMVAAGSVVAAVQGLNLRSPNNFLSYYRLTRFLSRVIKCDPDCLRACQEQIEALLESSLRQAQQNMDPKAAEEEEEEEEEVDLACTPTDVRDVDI
Summary of the method: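 Insect-cell lysate of coexpressed cdk4/cyclin D1 (0.1 μg) acts on GST-Rb (0.5 μg) bound to glutathione-Sepharose, in 50 mM HEPES pH 7.5, 10 mM MgCl2, 1 mM EGTA. Reaction runs 30 min at 37 °C, then is stopped by filtration and TNEN washes. Rb phosphorylation read by scintillation counting; IC50 derived.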

[3] = tested on: MDA-MB-231; assay: In vitro tumor cell proliferation, MDA-MB-231; assay type: cell-based, human; details: sulforhodamine B or CyQUANT assay, many values given with an undefined *, read-out: In vitro Tumor Cell Proliferation (IC50, μM) Breast MDA-MB-231
Summary of the method: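 Cells plated overnight at 37 °C, then exposed to drug for 3 days, refed with fresh drug and incubated 4 more days. Read-out by sulforhodamine B staining after TCA fixation; alternatively, CyQUANT after 3-day drug exposure and freezing at −80 °C.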

[4] = tested on: MDA-MB-435; assay: In vitro tumor cell proliferation, MDA-MB-435; assay type: cell-based; details: values given with an undefined *, read-out: In vitro Tumor Cell Proliferation (IC50, μM) Breast MDA-MB-435
Summary of the method: (§1)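 Tumor cells were seeded overnight at 37° C, then exposed to drug diluted in culture medium for 3 days, refed with fresh drug-containing medium and kept 4 more days. Cells were fixed with 10% trichloroacetic acid and stained with 0.4% sulforhodamine B; alternatively, CyQUANT read proliferation after 3 days' drug exposure.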

[5] = tested on: HT-29; assay: In vitro tumor cell proliferation, HT-29; assay type: cell-based, human; details: many values given with an undefined *, read-out: In vitro Tumor Cell Proliferation (IC50, μM) Colon HT-29
Summary of the method: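 HT-29 cells seeded overnight at 37° C, then exposed to drug for 3 days, refed with fresh drug-containing medium for 4 more days. Proliferation read by sulforhodamine B staining after TCA fixation; alternatively by CyQUANT after freezing plates at −80° C following 3 days' drug exposure.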

[6] = tested on: Colo-205; assay: In vitro tumor cell proliferation, Colo-205; assay type: cell-based; details: values given with an undefined *, read-out: In vitro Tumor Cell Proliferation (IC50, μM) Colon Colo-205
Summary of the method: as §1

[7] = tested on: A549; assay: In vitro tumor cell proliferation, A549; assay type: cell-based, human; details: many values given with an undefined *, read-out: In vitro Tumor Cell Proliferation (IC50, μM) Lung A549
Summary of the method: as §1

[8] = tested on: DMS-114; assay: In vitro tumor cell proliferation, DMS-114; assay type: cell-based, human; details: many values given with an undefined *, read-out: In vitro Tumor Cell Proliferation (IC50, μM) Lung DMS-114
Summary of the method: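 Human small cell lung carcinoma DMS-114 cells plated overnight, then drug-treated for 3 days, medium and drug renewed, and incubated 4 more days. Growth read by sulforhodamine B staining after TCA fixation; alternatively by CyQUANT after 3 days' drug exposure and freezing at −80 °C.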

[9] = tested on: PC-3; assay: In vitro tumor cell proliferation, PC-3; assay type: cell-based, human; details: many values given with an undefined *, read-out: In vitro Tumor Cell Proliferation (IC50, μM) Prostate PC-3
Summary of the method: as §1

[10] = tested on: DU145; assay: In vitro tumor cell proliferation, DU145; assay type: cell-based, human; details: many values given with an undefined *, read-out: In vitro Tumor Cell Proliferation (IC50, μM) Prostate DU145
Summary of the method: as §1

[11] = Homo sapiens, MDA-MB-231, MDA-MB-231
[12] = Homo sapiens, MDA-MB-435, MDA-MB-435
[13] = Homo sapiens, COLO 205, Colo-205

Compound | IC50 [1] | IC50 [2] | IC50 [3, 11] | IC50 ([3]; MDA-MB-231, trihydrochloride) | IC50 [4, 12] | IC50 ([4]; MDA-MB-435, trihydrochloride) | IC50 ([5]; HT-29, trihydrochloride) | IC50 ([5]; Homo sapiens, HT-29, HT-29) | IC50 ([6]; Colo-205, trihydrochloride) | IC50 [6, 13] | IC50 ([7]; A549, trihydrochloride) | IC50 ([7]; Homo sapiens, A549, A549) | IC50 ([8]; DMS-114, trihydrochloride) | IC50 ([8]; Homo sapiens, DMS-114, DMS-114) | IC50 ([9]; Homo sapiens, PC-3, PC-3) | IC50 ([9]; PC-3, trihydrochloride) | IC50 ([10]; DU145, trihydrochloride) | IC50 ([10]; Homo sapiens, DU-145, DU145) | also measured
N[C@H]1CC[C@H](Nc2nc(NC3CCN(Cc4ccccc4C(F)(F)F)CC3)c3ncn(C4CCCC4)c3n2)CC1 [Example 147-b, 2-[Trans-(4-aminocyclohexyl)amino]-6-[4-[1-(2-trifluoromethylbenzyl)]piperidinylamino]-9-cyclopentylpurine trihydrochloride] | 1200 nM and 920 nM | 2400 nM and 4500 nM | 0.64 µM | 0.73 µM | 0.99 µM | 0.95 µM | 0.61 µM | 0.65 µM | 0.62 µM | 0.48 µM | 0.4 µM | 0.42 µM | 0.82 µM | 0.92 µM | 0.63 µM | 0.78 µM | 0.61 µM | 0.46 µM | –
N[C@H]1CC[C@H](Nc2nc(NC3CCN(Cc4cc(C(F)(F)F)cc(C(F)(F)F)c4)CC3)c3ncn(C4CCCC4)c3n2)CC1 [Example 147-d, 2-[Trans-(4-aminocyclohexyl)amino]-6-[4-[1-[3,5-bis(trifluoromethyl)benzyl]]piperidinylamino]-9-cyclopentylpurine trihydrochloride] | – | 64000 nM | – | 0.47 µM and 0.42 µM | – | 0.69 µM and 0.94 µM | 0.44 µM and 0.34 µM | – | 0.38 µM and 0.52 µM | – | 0.23 µM and 0.25 µM | – | 0.34 µM and 0.36 µM | – | – | – | 0.69 µM and 0.58 µM | – | IC50 ([1]; trihydrochloride): 890 nM and 530 nM and 750 nM; IC50 ([9]; PC-3): 0.66 µM
N[C@H]1CC[C@H](Nc2nc(NC3CCN(Cc4cc(F)cc(F)c4)CC3)c3ncn(C4CCCC4)c3n2)CC1 [Example 147-g, 2-[Trans-(4-aminocyclohexyl)amino]-6-[4-1 1-(3.5-difluorobenzyl)]piperidinylamino]-9-cyclopentylpurine trihydrochloride] | 330 nM and 290 nM | 3500 nM and 2000 nM | 0.29 µM | – | 0.3 µM | 0.41 µM | 0.29 µM | – | 0.13 µM | 0.18 µM | 0.14 µM | 0.19 µM | 0.26 µM | 0.32 µM | 0.21 µM | 0.39 µM | 0.25 µM | 0.22 µM | –
N[C@H]1CC[C@H](Nc2nc(NC3CCN(Cc4cccc(Oc5ccccc5)c4)CC3)c3ncn(C4CCCC4)c3n2)CC1 [Example 147-ad, 2-[Trans-(4-aminocyclohexyl)amino]-6-[4-[1-(3-phenoxybenzyl)]piperidinylamino]-9-cyclopentylpurine trihydrochloride] | 280 nM and 190 nM | 3000 nM and 3200 nM | 0.64 µM | – | 0.87 µM | 1 µM | 0.7 µM | 0.79 µM | 0.58 µM | 0.53 µM | 0.43 µM | 0.39 µM | 0.62 µM | 0.82 µM | 0.48 µM | 0.86 µM | 0.62 µM | 0.54 µM | –
N[C@H]1CC[C@H](Nc2nc(NC3CCN(Cc4cccc5ccccc45)CC3)c3ncn(C4CCCC4)c3n2)CC1 [Example 147-a, 2-[Trans-(4-aminocyclohexyl)amino]-6-[4-[1-(1-naphthyl)methyl]piperidinylamino)-9-cyclopentylpurine trihydrochloride] | 410 nM and 97 nM and 440 nM | 2900 nM and 2100 nM | 0.35 µM | 0.34 µM | 0.42 µM | 0.408 µM | – | 0.32 µM | – | 0.2 µM | – | 0.17 µM | 0.33 µM | 0.32 µM | 0.24 µM | 0.34 µM | 0.33 µM | 0.22 µM | –
COCCCCNc1nc(N[C@H]2CC[C@H](N)CC2)nc2c1ncn2C1CCCC1 [Example 29, 2-[Trans-(4-aminocyclohexyl)amino]-6-(4-methoxybutylamino)-9-cyclopentylpurine dihydrochloride] | 11 nM and 40 nM | 1000 nM and 710 nM | 4.2 µM | – | 5.9 µM | – | – | 4.4 µM | – | 2.8 µM | – | 2.9 µM | – | 2.6 µM | 3.2 µM | – | – | 3 µM | IC50 ([3]; MDA-MB-231, dihydrochloride): 3.6 µM; IC50 ([4]; MDA-MB-435, dihydrochloride): 6 µM; IC50 ([5]; HT-29, dihydrochloride): 4.2 µM; IC50 ([6]; Colo-205, dihydrochloride): 4.6 µM; IC50 ([7]; A549, dihydrochloride): 2.6 µM; IC50 ([8]; DMS-114, dihydrochloride): 3.3 µM; IC50 ([9]; PC-3, dihydrochloride): 3.5 µM; IC50 ([10]; DU145, dihydrochloride): 2.9 µM
CCCCCc1ccc(Nc2nc(N[C@H]3CC[C@H](N)CC3)nc3c2ncn3C2CCCC2)cc1 [Example 23, 2-[Trans-(4-aminocyclohexyl)amino]-6-[(4-pentyl)phenylamino]-9-cyclopentylpurine dihydrochloride] | 2000 nM and 950 nM and 760 nM | 4000 nM | 2.7 µM | – | 3.1 µM | – | – | 2.5 µM | – | 2.9 µM | – | 2.3 µM | – | 2.6 µM | 3.1 µM | – | – | 3.1 µM | IC50 ([3]; MDA-MB-231, dihydrochloride): 2.6 µM and 2.5 µM; IC50 ([4]; MDA-MB-435, dihydrochloride): 3.5 µM and 3 µM and 3.3 µM; IC50 ([5]; HT-29, dihydrochloride): 2.4 µM and 2.3 µM; IC50 ([6]; Colo-205, dihydrochloride): 2.8 µM and 2.7 µM; IC50 ([7]; A549, dihydrochloride): 2.5 µM; IC50 ([8]; DMS-114, dihydrochloride): 2.1 µM; IC50 ([9]; PC-3, dihydrochloride): 2.7 µM and 2.5 µM and 2.2 µM; IC50 ([10]; DU145, dihydrochloride): 3.2 µM and 3 µM
